Target: T1, αvβ6 (Homo sapiens, UniProt P06756+P18564)
T1 construct: endogenous in cells; host or cells: HT-29 cells
Experiment: αvβ6 cell adhesion inhibition test (HT-29 cells on recombinant human LAP protein)
Type: cell-based
Settings: recombinant human LAP coating, 200 μM MnCl2, 1 hour, read-out: IC50 (rate of inhibition of cell adhesion, αvβ6)
Description: Test Example 2 was performed by partially modifying the method of Henderson et al. (Nat Med., 19 (12), 1617-24, 2013). In Test Example 2, the same reagents as in Test Example 1 were used unless otherwise specified.
Recombinant human LAP protein (manufactured by R&D Systems, Inc., 246-LP-025) was prepared at […] with PBS, dispensed at 100 μL/well to a 96-well plate, and left standing overnight. The plate was washed with HBSS, then subjected to blocking treatment with DMEM containing 1% BSA, and used as a coated plate in the adhesion test.
HT-29 cells cultured in McCoy's 5A medium (manufactured by Thermo Fisher Scientific, Inc., 16600) containing 10% FBS and 1% penicillin/streptomycin/amphotericin B were recovered and suspended in DMEM containing 0.1% BSA and 200 μM MnCl2 to prepare a cell suspension. A test compound was added thereto.
The cell suspension of 5×10^5 cells/mL containing the test compound was added at 100 μL/well to the coated plate and left standing for 1 hour in a 5% CO2 incubator (37° C.). One hour later, the supernatant was removed, and the plate was washed with HBSS containing 200 μM MnCl2. The cells that adhered to each well in the plate were stained with crystal violet, and the cells were lysed, followed by absorbance measurement. Inhibition without substrate coating was defined as 100% inhibition, and inhibition when DMSO was added instead of the test compound was defined as 0% inhibition. The rate of inhibition of cell adhesion by the test compound was calculated according to the following expression.
Rate of inhibition of cell adhesion (%)=[1−{(Absorbance in the case of adding the test compound)−(Absorbance without substrate coating)}/{(Absorbance in the case of adding DMS)−(Absorbance without substrate coating)}]×100
An IC50 value was calculated from the rate of inhibition of cell adhesion by the test compound. A: IC50<3 nM, B: 3 nM≤IC50<10 nM, C: 10 nM≤IC50<30 nM, D: 30 nM≤IC50<100 nM, or E: IC50≥100 nM.

T1 sequence (P06756 31-889 limits assumed): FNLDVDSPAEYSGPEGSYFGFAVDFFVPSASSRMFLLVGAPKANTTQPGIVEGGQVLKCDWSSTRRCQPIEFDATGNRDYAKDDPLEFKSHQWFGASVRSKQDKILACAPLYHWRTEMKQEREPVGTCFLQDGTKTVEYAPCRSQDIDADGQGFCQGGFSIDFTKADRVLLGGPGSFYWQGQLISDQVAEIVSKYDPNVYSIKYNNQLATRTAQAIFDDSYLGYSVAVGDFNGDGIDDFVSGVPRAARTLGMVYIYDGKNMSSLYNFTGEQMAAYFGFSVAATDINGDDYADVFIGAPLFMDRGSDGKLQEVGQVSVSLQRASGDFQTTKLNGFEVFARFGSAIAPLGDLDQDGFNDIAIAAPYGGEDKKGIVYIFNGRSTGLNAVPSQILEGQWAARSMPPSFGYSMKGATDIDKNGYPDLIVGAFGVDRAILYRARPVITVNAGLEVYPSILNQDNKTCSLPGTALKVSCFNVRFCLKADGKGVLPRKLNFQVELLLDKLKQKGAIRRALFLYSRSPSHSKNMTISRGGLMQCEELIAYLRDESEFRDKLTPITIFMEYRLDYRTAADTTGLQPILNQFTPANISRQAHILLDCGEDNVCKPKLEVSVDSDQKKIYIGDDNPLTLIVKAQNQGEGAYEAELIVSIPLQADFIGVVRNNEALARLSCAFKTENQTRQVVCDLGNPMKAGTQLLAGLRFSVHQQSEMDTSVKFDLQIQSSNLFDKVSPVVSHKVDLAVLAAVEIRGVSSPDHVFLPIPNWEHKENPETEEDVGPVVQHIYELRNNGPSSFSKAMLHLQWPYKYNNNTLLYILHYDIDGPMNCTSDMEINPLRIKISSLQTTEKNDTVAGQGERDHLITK
T1 sequence (P06756 891-1048 limits assumed): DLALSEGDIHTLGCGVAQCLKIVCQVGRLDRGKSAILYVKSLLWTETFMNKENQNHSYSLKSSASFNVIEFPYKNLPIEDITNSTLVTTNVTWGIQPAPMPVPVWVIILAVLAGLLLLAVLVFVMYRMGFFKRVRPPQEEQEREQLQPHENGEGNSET
T1 sequence (P18564 22-788): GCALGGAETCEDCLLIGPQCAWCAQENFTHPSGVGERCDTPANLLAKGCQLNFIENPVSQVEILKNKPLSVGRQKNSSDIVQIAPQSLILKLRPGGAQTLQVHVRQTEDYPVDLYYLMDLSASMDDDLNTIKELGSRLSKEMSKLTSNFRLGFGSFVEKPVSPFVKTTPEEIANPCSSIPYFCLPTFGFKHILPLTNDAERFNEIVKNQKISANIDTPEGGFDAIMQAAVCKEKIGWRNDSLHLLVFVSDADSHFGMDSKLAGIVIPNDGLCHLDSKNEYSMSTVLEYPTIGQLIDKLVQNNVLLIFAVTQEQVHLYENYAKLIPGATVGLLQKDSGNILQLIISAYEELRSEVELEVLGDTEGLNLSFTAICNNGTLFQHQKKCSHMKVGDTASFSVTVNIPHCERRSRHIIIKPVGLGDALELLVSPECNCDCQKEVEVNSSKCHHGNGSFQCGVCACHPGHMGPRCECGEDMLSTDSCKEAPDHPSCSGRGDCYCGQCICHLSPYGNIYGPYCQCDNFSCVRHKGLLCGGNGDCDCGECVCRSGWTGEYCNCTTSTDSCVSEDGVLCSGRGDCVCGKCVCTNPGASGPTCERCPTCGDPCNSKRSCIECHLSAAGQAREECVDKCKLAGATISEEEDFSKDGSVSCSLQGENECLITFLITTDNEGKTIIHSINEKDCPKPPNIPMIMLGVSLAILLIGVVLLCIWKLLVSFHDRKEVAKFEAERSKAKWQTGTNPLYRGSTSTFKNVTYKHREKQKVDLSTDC

| SMILES | IC50 |
| --- | --- |
| O=C(O)C[C@H](NC(=O)CNC(=O)c1cc(NC2=NCC(F)CN2)c2cn[nH]c2c1)c1cc(Cl)cc(C(F)(F)F)c1 (stereo partly drawn) [Example 1-(b), (3S)-3-(3-chloro-5-(trifluoromethyl)phenyl)-3-(2-(4-((5-fluoro-1,4,5,6-tetrahydropyrimidin-2-yl)amino)-1H-indazole-6-carboxamido)acetamido)propanoic acid] | < 3 nM |
| O=C(O)C[C@H](NC(=O)CNC(=O)c1cc(NC2=NCC(F)CN2)c2cn[nH]c2c1)c1cc(Br)cc(C(F)(F)F)c1 (stereo partly drawn) [Example 2-(b), (3S)-3-(3-bromo-5-(trifluoromethyl)phenyl)-3-(2-(4-((5-fluoro-1,4,5,6-tetrahydropyrimidin-2-yl)amino)-1H-indazole-6-carboxamido)acetamido)propanoic acid] | < 3 nM |
| O=C(O)C[C@H](NC(=O)CNC(=O)c1cc(NC2=NCC(F)CN2)c2cn[nH]c2c1)c1cc(I)cc(C(F)(F)F)c1 (stereo partly drawn) [Example 3-(b), (3S)-3-(2-(4-((5-fluoro-1,4,5,6-tetrahydropyrimidin-2-yl)amino)-1H-indazole-6-carboxamido)acetamido)-3-(3-iodo-5-(trifluoromethyl)phenyl)propanoic acid] | < 3 nM |
| Cc1cc([C@H](CC(=O)O)NC(=O)CNC(=O)c2cc(NC3=NCC(F)CN3)c3cn[nH]c3c2)cc(C(F)(F)F)c1 (stereo partly drawn) [Example 4-(b), (3S)-3-(2-(4-((5-fluoro-1,4,5,6-tetrahydropyrimidin-2-yl)amino)-1H-indazole-6-carboxamido)acetamido)-3-(3-methyl-5-(trifluoromethyl)phenyl)propanoic acid] | < 3 nM |
| COc1cc([C@H](CC(=O)O)NC(=O)CNC(=O)c2cc(NC3=NCC(F)CN3)c3cn[nH]c3c2)cc(C(F)(F)F)c1 (stereo partly drawn) [Example 5-(b), (3S)-3-(2-(4-((5-fluoro-1,4,5,6-tetrahydropyrimidin-2-yl)amino)-1H-indazole-6-carboxamido)acetamido)-3-(3-methoxy-5-(trifluoromethyl)phenyl)propanoic acid] | < 3 nM |
| O=C(O)C[C@H](NC(=O)CNC(=O)c1cc(NC2=NCC(F)CN2)c2cn[nH]c2c1)c1cc(F)cc(C(F)(F)F)c1 (stereo partly drawn) [Example 6-(b), (3S)-3-(2-(4-((5-fluoro-1,4,5,6-tetrahydropyrimidin-2-yl)amino)-1H-indazole-6-carboxamido)acetamido)-3-(3-fluoro-5-(trifluoromethyl)phenyl)propanoic acid] | 3 to 10 nM |
| O=C(O)C[C@H](NC(=O)CNC(=O)c1cc(NC2=NCC(F)CN2)c2cn[nH]c2c1)c1cc(C(F)(F)F)cc(C(F)(F)F)c1 (stereo partly drawn) [Example 7-(b), (3S)-3-(3,5-bis(trifluoromethyl)phenyl)-3-(2-(4-((5-fluoro-1,4,5,6-tetrahydropyrimidin-2-yl)amino)-1H-indazole-6-carboxamido)acetamido)propanoic acid] | < 3 nM |
| O=C(O)C[C@H](NC(=O)CNC(=O)c1cc(NC2=NCC(F)CN2)c2cn[nH]c2c1)c1cc(-n2cccn2)cc(C(F)(F)F)c1 (stereo partly drawn) [Example 8-(b), (3S)-3-(3-(1H-pyrazol-1-yl)-5-(trifluoromethyl)phenyl)-3-(2-(4-((5-fluoro-1,4,5,6-tetrahydropyrimidin-2-yl)amino)-1H-indazole-6-carboxamido)acetamido)propanoic acid] | < 3 nM |
| O=C(O)C[C@H](NC(=O)CNC(=O)c1cc(NC2=NCC(F)CN2)c2cn[nH]c2c1)c1cccc(C(F)(F)F)c1F (stereo partly drawn) [Example 9-(b), (3S)-3-(2-(4-((5-fluoro-1,4,5,6-tetrahydropyrimidin-2-yl)amino)-1H-indazole-6-carboxamido)acetamido)-3-(2-fluoro-3-(trifluoromethyl)phenyl)propanoic acid] | < 3 nM |
| O=C(O)C[C@H](NC(=O)CNC(=O)c1cc(NC2=NCC(F)CN2)c2cn[nH]c2c1)c1cccc(C(F)(F)F)c1Cl (stereo partly drawn) [Example 10-(b), (3S)-3-(2-chloro-3-(trifluoromethyl)phenyl)-3-(2-(4-((5-fluoro-1,4,5,6-tetrahydropyrimidin-2-yl)amino)-1H-indazole-6-carboxamido)acetamido)propanoic acid] | ≥ 100 nM |
| O=C(O)C[C@H](NC(=O)CNC(=O)c1cc(NC2=NCC(F)CN2)c2cn[nH]c2c1)c1cc(C(F)(F)F)ccc1F (stereo partly drawn) [Example 11-(b), (3S)-3-(2-(4-((5-fluoro-1,4,5,6-tetrahydropyrimidin-2-yl)amino)-1H-indazole-6-carboxamido)acetamido)-3-(2-fluoro-5-(trifluoromethyl)phenyl)propanoic acid] | < 3 nM |
| O=C(O)C[C@H](NC(=O)CNC(=O)c1cc(NC2=NCC(F)CN2)c2cn[nH]c2c1)c1cc(C(F)(F)F)ccc1Cl (stereo partly drawn) [Example 12-(b), (3S)-3-(2-chloro-5-(trifluoromethyl)phenyl)-3-(2-(4-((5-fluoro-1,4,5,6-tetrahydropyrimidin-2-yl)amino)-1H-indazole-6-carboxamido)acetamido)propanoic acid] | 3 to 10 nM |
| O=C(O)C[C@H](NC(=O)CNC(=O)c1cc(NC2=NCC(F)CN2)c2cn[nH]c2c1)c1ccc(F)c(C(F)(F)F)c1 (stereo partly drawn) [Example 13-(b), (3S)-3-(2-(4-((5-fluoro-1,4,5,6-tetrahydropyrimidin-2-yl)amino)-1H-indazole-6-carboxamido)acetamido)-3-(4-fluoro-3-(trifluoromethyl)phenyl)propanoic acid] | < 3 nM |
| Cc1ccc([C@H](CC(=O)O)NC(=O)CNC(=O)c2cc(NC3=NCC(F)CN3)c3cn[nH]c3c2)cc1C(F)(F)F (stereo partly drawn) [Example 14-(b), (3S)-3-(2-(4-((5-fluoro-1,4,5,6-tetrahydropyrimidin-2-yl)amino)-1H-indazole-6-carboxamido)acetamido)-3-(4-methyl-3-(trifluoromethyl)phenyl)propanoic acid] | < 3 nM |
| O=C(O)C[C@H](NC(=O)CNC(=O)c1cc(NC2=NCC(F)CN2)c2cn[nH]c2c1)c1cc(Cl)c(F)c(C(F)(F)F)c1 (stereo partly drawn) [Example 15-(b), (3S)-3-(3-chloro-4-fluoro-5-(trifluoromethyl)phenyl)-3-(2-(4-((5-fluoro-1,4,5,6-tetrahydropyrimidin-2-yl)amino)-1H-indazole-6-carboxamido)acetamido)propanoic acid] | < 3 nM |
| COc1ccc([C@H](CC(=O)O)NC(=O)CNC(=O)c2cc(NC3=NCC(F)CN3)c3cn[nH]c3c2)cc1Br (stereo partly drawn) [Example 16-(b), (3S)-3-(3-bromo-4-methoxyphenyl)-3-(2-(4-((5-fluoro-1,4,5,6-tetrahydropyrimidin-2-yl)amino)-1H-indazole-6-carboxamido)acetamido)propanoic acid] | < 3 nM |
| O=C(O)C[C@H](NC(=O)CNC(=O)c1cc(NC2=NCC(F)CN2)c2cn[nH]c2c1)c1cc(Cl)cc(Cl)c1 (stereo partly drawn) [Example 17-(b), (3S)-3-(3,5-dichlorophenyl)-3-(2-(4-((5-fluoro-1,4,5,6-tetrahydropyrimidin-2-yl)amino)-1H-indazole-6-carboxamido)acetamido)propanoic acid] | 3 to 10 nM |
| O=C(O)C[C@H](NC(=O)CNC(=O)c1cc(NC2=NCC(F)CN2)c2cn[nH]c2c1)c1cc(Cl)cc(Br)c1 (stereo partly drawn) [Example 18-(b), (3S)-3-(3-bromo-5-chlorophenyl)-3-(2-(4-((5-fluoro-1,4,5,6-tetrahydropyrimidin-2-yl)amino)-1H-indazole-6-carboxamido)acetamido)propanoic acid] | < 3 nM |
| O=C(O)C[C@H](NC(=O)CNC(=O)c1cc(NC2=NCC(F)CN2)c2cn[nH]c2c1)c1cc(Br)cc(Br)c1 (stereo partly drawn) [Example 19-(b), (3S)-3-(3,5-dibromophenyl)-3-(2-(4-((5-fluoro-1,4,5,6-tetrahydropyrimidin-2-yl)amino)-1H-indazole-6-carboxamido)acetamido)propanoic acid] | < 3 nM |
| O=C(O)C[C@H](NC(=O)CNC(=O)c1cc(NC2=NCC(F)CN2)c2cn[nH]c2c1)c1cc(Br)cc(I)c1 (stereo partly drawn) [Example 20-(b), (3S)-3-(3-bromo-5-iodophenyl)-3-(2-(4-((5-fluoro-1,4,5,6-tetrahydropyrimidin-2-yl)amino)-1H-indazole-6-carboxamido)acetamido)propanoic acid] | < 3 nM |
| O=C(O)C[C@H](NC(=O)CNC(=O)c1cc(NC2=NCC(F)CN2)c2cn[nH]c2c1)c1cc(Cl)cc(I)c1 (stereo partly drawn) [Example 21-(b), (3S)-3-(3-chloro-5-iodophenyl)-3-(2-(4-((5-fluoro-1,4,5,6-tetrahydropyrimidin-2-yl)amino)-1H-indazole-6-carboxamido)acetamido)propanoic acid] | < 3 nM |
| O=C(O)C[C@H](NC(=O)CNC(=O)c1cc(NC2=NCC(F)CN2)c2cn[nH]c2c1)c1cc(Cl)ccc1F (stereo partly drawn) [Example 22-(b), (3S)-3-(5-chloro-2-fluorophenyl)-3-(2-(4-((5-fluoro-1,4,5,6-tetrahydropyrimidin-2-yl)amino)-1H-indazole-6-carboxamido)acetamido)propanoic acid] | 3 to 10 nM |

— US20230192661A1, “1, 4, 5, 6-TETRAHYDROPYRIMIDINE-2-AMINE DERIVATIVE” (UBE Corporation, priority 2020, published 2023)
